# Source: US20260297070A1, “CYCLIC [COMPOUND LEFT OUT] WRN INHIBITORS” (Nimbus Wadjet, Inc., priority 2023, published 2026)
# Biological target: T1, human Werner helicase (WRN-BV08, Uniprot Q14191, amino acids 517-1235 with L1074F point mutation) (Homo sapiens, UniProt Q14191, L1074F)
# T1 construct: Uniprot Q14191, amino acids 517-1235 with L1074F point mutation; TEV-cleavable 8×His (C, cleaved yes); made in house; host or cells: Sf9 insect cells (baculovirus)
# Test: WRN (BV08) ADP-Glo Assay
# Type: biochemical
# Details: 0.15 nM WRN, 5 μM ATP, 0.1 nM DNA duplex, 15 min preincubation, 60 min at 25° C., pH 7.5, 1% DMSO; read-out: ADP-Glo_hWRN_IC50
# Outline: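 Untagged WRN (Sf9-expressed, TEV-cleaved) at 0.15 nM was preincubated 15 min at 25 °C with compound, then reacted 60 min at 25 °C with 5 μM ATP and 0.1 nM DNA duplex in Bicine pH 7.5, 1 mM MgCl2. ADP-Glo luminescence gave % inhibition; IC50 by four-parameter fit.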
# T1 sequence (Q14191 with tags, fused parts or gaps L1074F limits assumed): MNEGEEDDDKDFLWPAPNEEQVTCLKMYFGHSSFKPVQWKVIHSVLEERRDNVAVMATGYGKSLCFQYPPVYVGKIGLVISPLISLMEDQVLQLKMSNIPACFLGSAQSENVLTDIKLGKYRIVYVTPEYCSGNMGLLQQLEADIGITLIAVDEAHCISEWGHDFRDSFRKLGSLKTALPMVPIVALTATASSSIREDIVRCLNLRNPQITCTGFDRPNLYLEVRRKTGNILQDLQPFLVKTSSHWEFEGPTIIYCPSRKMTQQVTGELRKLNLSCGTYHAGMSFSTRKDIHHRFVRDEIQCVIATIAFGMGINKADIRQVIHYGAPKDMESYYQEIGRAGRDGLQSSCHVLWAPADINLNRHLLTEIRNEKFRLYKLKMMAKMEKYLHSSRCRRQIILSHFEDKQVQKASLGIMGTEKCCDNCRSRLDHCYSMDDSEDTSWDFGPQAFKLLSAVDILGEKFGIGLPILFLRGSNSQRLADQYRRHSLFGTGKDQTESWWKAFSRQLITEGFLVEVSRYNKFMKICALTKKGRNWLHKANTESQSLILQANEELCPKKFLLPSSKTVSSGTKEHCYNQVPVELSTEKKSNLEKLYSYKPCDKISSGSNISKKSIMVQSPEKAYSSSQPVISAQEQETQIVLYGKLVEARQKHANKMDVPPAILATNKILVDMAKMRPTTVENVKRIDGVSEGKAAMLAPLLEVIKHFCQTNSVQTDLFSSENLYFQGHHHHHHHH
row,SMILES,IC50
1,"Cc1nn(-c2ccc(F)cc2F)c(C)c1CC(=O)N(Cc1ccncc1)C1C=CS(=O)(=O)C1 (stereo not shown) [I-816, 2-[1-(2,4-difluorophenyl)-3,5-dimethyl-1H-pyrazol-4-yl]-N-(1,1-dioxo-2,3-dihydro-1lambda6-thiophen-3-yl)-N-[(pyridin-4-yl)methyl]acetamide]",> 50 µM
2,"O=C(Cc1ccc(S(F)(F)(F)(F)F)cc1)N(Cc1ccc(=O)[nH]n1)C1C=CS(=O)(=O)C1 (stereo not shown) [I-817, N-(1,1-dioxo-2,3-dihydro-1lambda6-thiophen-3-yl)-N-[(6-oxo-1,6-dihydropyridazin-3-yl)methyl]-2-[4-(pentafluoro-lambda6-sulfanyl)phenyl]acetamide]",0.5 to 5 µM
3,"O=C1NC(c2ccccc2)CCN1CC(=O)N(Cc1ccncc1)C1C=CS(=O)(=O)C1 (stereo not shown) [I-819, N-(1,1-dioxo-2,3-dihydro-1lambda6-thiophen-3-yl)-2-(2-oxo-4-phenyl-1,3-diazinan-1-yl)-N-[(pyridin-4-yl)methyl]acetamide]",10 to 50 µM
4,"COc1cc(C(C)N(C(=O)Cn2cc(-c3cc(F)c(F)c(F)c3)cn2)C2C=CS(=O)(=O)C2)ccn1 (stereo not shown) [I-820, N-(1,1-dioxo-2,3-dihydro-1lambda6-thiophen-3-yl)-N-[1-(2-methoxypyridin-4-yl)ethyl]-2-[4-(3,4,5-trifluorophenyl)-1H-pyrazol-1-yl]acetamide]",< 0.5 µM
5,"COc1cc(CN(C(=O)C(C(=O)N(C)CC2CC(F)(F)C2)c2ccc(-c3ccc(F)c(F)c3)cc2F)[C@@H]2C=CS(=O)(=O)C2)ccn1 (stereo partly drawn) [I-822, N-[(3,3-difluorocyclobutyl)methyl]-N′-[(3R)-1,1-dioxo-2,3-dihydro-1lambda6-thiophen-3-yl]-N′-[(2-methoxypyridin-4-yl)methyl]-N-methyl-2-{3,3′,4′-trifluoro-[1,1′-biphenyl]-4-yl}propanediamide]",< 0.5 µM
6,"O=C(Cn1cc(-c2cc(F)c(F)c(F)c2)cn1)OCC1(c2csc(CNC3C=CS(=O)(=O)C3)n2)CC1 (stereo not shown) [I-823, [1-(2-{[(1,1-dioxo-2,3-dihydro-1lambda6-thiophen-3-yl)amino]methyl}-1,3-thiazol-4-yl)cyclopropyl]methyl 2-[4-(3,4,5-trifluorophenyl)-1H-pyrazol-1-yl]acetate]",> 50 µM
7,"O=C(Cn1cc(-c2cc(F)c(F)c(F)c2)cn1)N(Cc1cc(C2CC2)ns1)C1C=CS(=O)(=O)C1 (stereo not shown) [I-824, N-[(3-cyclopropyl-1,2-thiazol-5-yl)methyl]-N-(1,1-dioxo-2,3-dihydro-1lambda6-thiophen-3-yl)-2-[4-(3,4,5-trifluorophenyl)-1H-pyrazol-1-yl]acetamide]",< 0.5 µM
8,"CC(C)(O)c1cc(CN(C(=O)Cc2cc(-c3ccc(F)c(F)c3)sn2)[C@@H]2C=CS(=O)(=O)C2)ccn1 [I-825, 2-[5-(3,4-difluorophenyl)-1,2-thiazol-3-yl]-N-[(3R)-1,1-dioxo-2,3-dihydro-1lambda6-thiophen-3-yl]-N-{[2-(2-hydroxypropan-2-yl)pyridin-4-yl]methyl}acetamide]",< 0.5 µM
9,"CC(O)(c1cc(CN(C(=O)Cn2cc(-c3cc(F)c(F)c(F)c3)cn2)C2C=CS(=O)(=O)C2)ccn1)C1CC1 (stereo not shown) [I-826, N-{[2-(1-cyclopropyl-1-hydroxyethyl)pyridin-4-yl]methyl}-N-(1,1-dioxo-2,3-dihydro-1lambda6-thiophen-3-yl)-2-[4-(3,4,5-trifluorophenyl)-1H-pyrazol-1-yl]acetamide]",< 0.5 µM
10,"CC(O)(c1cc(CN(C(=O)Cn2cc(-c3cc(F)c(F)c(F)c3)cn2)C2C=CS(=O)(=O)C2)ccn1)C(F)F (stereo not shown) [I-827, N-{[2-(1,1-difluoro-2-hydroxypropan-2-yl)pyridin-4-yl]methyl}-N-(1,1-dioxo-2,3-dihydro-1lambda6-thiophen-3-yl)-2-[4-(3,4,5-trifluorophenyl)-1H-pyrazol-1-yl]acetamide]",< 0.5 µM
11,"COc1cc([C@H](C)N(C(=O)Cn2cc(-c3cc(F)c(F)c(F)c3)cn2)[C@@H]2C=CS(=O)(=O)C2)ccn1 [I-829, N-[(3R)-1,1-dioxo-2,3-dihydro-1lambda6-thiophen-3-yl]-N-[(1S)-1-(2-methoxypyridin-4-yl)ethyl]-2-[4-(3,4,5-trifluorophenyl)-1H-pyrazol-1-yl]acetamide]",< 0.5 µM
12,"CC(C)(O)c1cc(CN(C(=O)Cn2cc(-c3cc(F)c(F)c(F)c3)c(F)n2)[C@@H]2C=CS(=O)(=O)C2)ccn1 [I-832, N-[(3R)-1,1-dioxo-2,3-dihydro-1lambda6-thiophen-3-yl]-2-[3-fluoro-4-(3,4,5-trifluorophenyl)-1H-pyrazol-1-yl]-N-{[2-(2-hydroxypropan-2-yl)pyridin-4-yl]methyl}acetamide]",< 0.5 µM
13,"COc1cc(CN(C(=O)C(OC2CS(=O)(=O)C2)c2ccc(-c3ccc(F)c(F)c3)cc2F)[C@@H]2C=CS(=O)(=O)C2)ccn1 (stereo partly drawn) [I-833, 2-[(1,1-dioxo-1lambda6-thietan-3-yl)oxy]-N-[(3R)-1,1-dioxo-2,3-dihydro-1lambda6-thiophen-3-yl]-N-[(2-methoxypyridin-4-yl)methyl]-2-{3,3′,4′-trifluoro-[1,1′-biphenyl]-4-yl}acetamide]",10 to 50 µM
14,"Cc1cccn1-c1ccc(CC(=O)N(Cc2ccc(C(=O)N3CCN(C(=O)CCCc4cn(Cc5ccc(NC(=O)CCOCCOCCOCCOCCNC(=O)CCCC[C@@H]6SC[C@@H]7NC(=O)N[C@@H]76)cn5)nn4)CC3)cc2)C2C=CS(=O)(=O)C2)c(F)c1 (stereo partly drawn) [II-2, 1-{5-[(3aS,4S,6aR)-2-oxo-hexahydro-1H-thieno[3,4-d]imidazol-4-yl]pentanamido}-N-{6-[(4-{4-[4-(4-{[N-(1,1-dioxo-2,3-dihydro-1lambda6-thiophen-3-yl)-2-[2-fluoro-4-(2-methyl-1H-pyrrol-1-yl)phenyl]acetamido]methyl}benzoyl)piperazin-1-yl]-4-oxobutyl}-1H-1,2,3-triazol-1-yl)methyl]pyridin-3-yl}-3,6,9,12-tetraoxapentadecan-15-amide]",0.5 to 5 µM
15,"O=C(CCCC[C@@H]1SC[C@@H]2NC(=O)N[C@@H]21)NCCOCCOCCOCCOCCC(=O)Nc1ccc(Cn2cc(CCCC(=O)N3CCN(C(=O)c4ccc(CN(C(=O)Cc5ccc(-n6cccc6)cc5F)C5C=CS(=O)(=O)C5)cc4)CC3)nn2)nc1 (stereo partly drawn) [II-3, 1-{5-[(3aS,4S,6aR)-2-oxo-hexahydro-1H-thieno[3,4-d]imidazol-4-yl]pentanamido}-N-{6-[(4-{4-[4-(4-{[N-(1,1-dioxo-2,3-dihydro-1lambda6-thiophen-3-yl)-2-[2-fluoro-4-(1H-pyrrol-1-yl)phenyl]acetamido]methyl}benzoyl)piperazin-1-yl]-4-oxobutyl}-1H-1,2,3-triazol-1-yl)methyl]pyridin-3-yl}-3,6,9,12-tetraoxapentadecan-15-amide]",10 to 50 µM
16,"O=C(CCCC[C@@H]1SC[C@@H]2NC(=O)N[C@@H]21)NCCOCCOCCOCCOCCOCCOCCC(=O)N1CCN(Cc2ccc(CN(C(=O)Cc3ccc(-n4cccc4)cc3F)C3C=CS(=O)(=O)C3)cc2)CC1 (stereo partly drawn) [II-4, 5-[(3aS,4S,6aR)-2-oxo-hexahydro-1H-thieno[3,4-d]imidazol-4-yl]-N-(21-{4-[(4-{[N-(1,1-dioxo-2,3-dihydro-1lambda6-thiophen-3-yl)-2-[2-fluoro-4-(1H-pyrrol-1-yl)phenyl]acetamido]methyl}phenyl)methyl]piperazin-1-yl}-21-oxo-3,6,9,12,15,18-hexaoxahenicosan-1-yl)pentanamide]",10 to 50 µM
